US20260285850A1, “SUBSTITUTED OXAZOLIDINONES AND IMIDAZOLINONES AS HERBICIDES” (FMC CORPORATION, priority 2023, published 2026)

Assays:
Assay type in all cases: in vivo
[1] = tested on: barnyardgrass (Echinochloa crus-galli); assay: Test A preemergence soil spray, visual injury rating 0-100; conditions: 10 days
Summary of the method: (§1)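 Compounds formulated in a non-phytotoxic solvent with surfactant are sprayed onto soil of freshly planted loam-sand pots ahead of emergence, or onto emerged plants 2-10 cm tall. After a 10-day greenhouse period, each species is scored visually for injury against untreated controls.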

[2] = tested on: blackgrass (Alopecurus myosuroides); assay: as above; conditions: 10 days
Summary of the method: as §1

corn (Zea mays) [3] = assay: as above; conditions: 10 days
Summary of the method: as §1

[4] = tested on: green foxtail (Setaria viridis); assay: as above; conditions: 10 days
Summary of the method: as §1

kochia (Bassia scoparia) [5] = assay: as above; conditions: 10 days
Summary of the method: as §1

[6] = tested on: oat, wild (wild oat, Avena fatua); assay: as above; conditions: 10 days
Summary of the method: as §1

[7] = tested on: palmer (palmer amaranth, palmer pigweed, Amaranthus palmeri); assay: as above; conditions: 10 days
Summary of the method: as §1

[8] = tested on: ragweed (common ragweed, Ambrosia artemisiifolia); assay: as above; conditions: 10 days
Summary of the method: as §1

[9] = tested on: ryegrass, Italian (italian ryegrass, Lolium multiflorum); assay: as above; conditions: 10 days
Summary of the method: as §1

soybean (Glycine max) [10] = assay: as above; conditions: 10 days
Summary of the method: as §1

[11] = tested on: wheat (Triticum aestivum); assay: as above; conditions: 10 days
Summary of the method: as §1

[12] = tested on: barnyardgrass (Echinochloa crus-galli); assay: Test A postemergence application, visual injury rating 0-100
Summary of the method: as §1

[13] = tested on: blackgrass (Alopecurus myosuroides); assay: as above
Summary of the method: as §1

corn (Zea mays) [14] = assay: as above
Summary of the method: as §1

[15] = tested on: galium (catchweed bedstraw, Galium aparine); assay: as above
Summary of the method: as §1

[16] = tested on: green foxtail (Setaria viridis); assay: as above
Summary of the method: as §1

[17] = tested on: horseweed (Erigeron canadensis); assay: as above
Summary of the method: as §1

kochia (Bassia scoparia) [18] = assay: as above
Summary of the method: as §1

[19] = tested on: oat, wild (wild oat, Avena fatua); assay: as above
Summary of the method: as §1

[20] = tested on: ragweed (common ragweed, Ambrosia artemisiifolia); assay: as above
Summary of the method: as §1

[21] = tested on: ryegrass, Italian (italian ryegrass, Lolium multiflorum); assay: as above
Summary of the method: as §1

soybean (Glycine max) [22] = assay: as above
Summary of the method: as §1

[23] = tested on: wheat (Triticum aestivum); assay: as above
Summary of the method: as §1

[24] = tested on: barnyardgrass (Echinochloa crusgalli); assay: Test B flooded paddy test, visual plant response rating 0-100; conditions: 250 g ai/ha, Flood, applied to paddy water, evaluated after 13 days
Summary of the method: (§2)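 Treatment occurs at the 2-leaf stage by adding compound to floodwater standing 3 cm above the soil, a level kept for the whole test. Plants stay in the greenhouse 13 days before visual comparison with controls.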

[25] = tested on: ducksalad (Heteranthera limosa); assay: as above; conditions: 250 g ai/ha, Flood, applied to paddy water, evaluated after 13 days
Summary of the method: as §2

rice (Oryza sativa) = assay: as above; conditions: 250 g ai/ha, Flood, applied to paddy water, evaluated after 13 days
Summary of the method: as §2

[26] = tested on: sedge, umbrella (small-flower umbrella sedge, Cyperus difformis); assay: as above; conditions: 250 g ai/ha, Flood, applied to paddy water, evaluated after 13 days
Summary of the method: as §2

[27] = 62 g ai/ha, 0 = no effect, 100 = complete control
[28] = 62 g ai/ha, postemergence, 10 days, 0 = no effect, 100 = complete control
[29] = Postemergence, 16 g ai/ha, greenhouse 10 days, 0 no effect, 100 complete control

COC(=O)C1CC(NC(=O)C2(C(F)(F)F)CN(c3cc(F)cc(F)c3)C(=O)O2)C2CC12 (centres unmarked) [Compound 177]
80: Kochia plant response rating (0-100) (kochia (Bassia scoparia) [5]; [27]) | Ryegrass, Italian plant response rating ([9]; 16 g ai/ha, 0 to 100 scale) | Barnyardgrass plant response rating (0-100) [12, 28] | Blackgrass plant response rating (0 to 100 scale) [13, 29] | Galium plant response rating (0-100) [15, 28] | Ryegrass, Italian plant response rating (0-100) [21, 28] | Wheat plant response rating (0 to 100 scale) [23, 29] | Plant response rating, Sedge, Umbrella (0 to 100 scale, 0 is no effect and 100 is complete control) [26]
40: Wheat plant response rating ([11]; 16 g ai/ha, 0 to 100 scale)
0: Kochia plant response rating (kochia (Bassia scoparia) [5]; 16 g ai/ha, 0 to 100 scale) | Oat, Wild plant response rating ([6]; 16 g ai/ha, 0 to 100 scale) | Ragweed plant response rating ([8]; 16 g ai/ha, 0 to 100 scale) | Soybean plant response rating (soybean (Glycine max) [10]; 16 g ai/ha, 0 to 100 scale) | Soybean plant response rating (0-100) (soybean (Glycine max) [10]; [27]) | Horseweed plant response rating (0 to 100 scale) [17, 29] | Ragweed plant response rating (0 to 100 scale) [20, 29]
20: Ragweed plant response rating (0-100) [8, 27] | Ragweed plant response rating (0-100) [20, 28] | Soybean plant response rating (0 to 100 scale) (soybean (Glycine max) [22]; [29])
100: Foxtail, Green plant response rating (0-100) [4, 27] | Pigweed, Palmer plant response rating (0-100) [7, 27] | Wheat plant response rating (0-100) [11, 27]
50: Soybean plant response rating (0-100) (soybean (Glycine max) [22]; [28])
75: Plant response rating, Ducksalad (0 to 100 scale, 0 is no effect and 100 is complete control) [25]
10: Corn plant response rating (corn (Zea mays) [3]; 16 g ai/ha, 0 to 100 scale) | Corn plant response rating (0-100) (corn (Zea mays) [3]; [27]) | Horseweed plant response rating (0-100) [17, 28]
60: Barnyardgrass plant response rating ([1]; 16 g ai/ha, 0 to 100 scale) | Blackgrass plant response rating ([2]; 16 g ai/ha, 0 to 100 scale)
30: Corn plant response rating (0 to 100 scale) (corn (Zea mays) [14]; [29]) | Foxtail, Green plant response rating (0 to 100 scale) [16, 29] | Kochia plant response rating (0 to 100 scale) (kochia (Bassia scoparia) [18]; [29])
90: Barnyardgrass plant response rating (0-100) [1, 27] | Blackgrass plant response rating (0-100) [2, 27] | Foxtail, Green plant response rating ([4]; 16 g ai/ha, 0 to 100 scale) | Oat, Wild plant response rating (0-100) [6, 27] | Pigweed, Palmer plant response rating ([7]; 16 g ai/ha, 0 to 100 scale) | Ryegrass, Italian plant response rating (0-100) [9, 27] | Blackgrass plant response rating (0-100) [13, 28] | Corn plant response rating (0-100) (corn (Zea mays) [14]; [28]) | Galium plant response rating (0 to 100 scale) [15, 29] | Foxtail, Green plant response rating (0-100) [16, 28] | Oat, Wild plant response rating (0-100) [19, 28] | Wheat plant response rating (0-100) [23, 28] | Plant response rating, Barnyardgrass (0 to 100 scale, 0 is no effect and 100 is complete control) [24] | Plant response rating, Rice (0 to 100 scale, 0 is no effect and 100 is complete control) (rice (Oryza sativa))
70: Barnyardgrass plant response rating (0 to 100 scale) [12, 29] | Kochia plant response rating (0-100) (kochia (Bassia scoparia) [18]; [28]) | Oat, Wild plant response rating (0 to 100 scale) [19, 29] | Ryegrass, Italian plant response rating (0 to 100 scale) [21, 29]
